# Test results reported in patent US20250092039A1, “GLUTARIMIDE-CONTAINING PAN-KRAS-MUTANT DEGRADER COMPOUNDS AND USES THEREOF” (Tiger Biotherapeutics Inc., priority 2022, published 2025).
# What was measured:
# KRAS-G12V/RAF1 = KRAS-G12V/RAF1 (Homo sapiens (Human), UniProt P01116, G12V); assay: KRAS/RAF1 binding inhibition assay (AlphaScreen)
# Experimental: Binding affinity against GTP-bound KRAS of the compounds disclosed herein was measured by monitoring the interaction of guanosine 5′-[β,γ-imido]triphosphate-bound (GppNHp-bound) KRAS with the RBD domain of RAF1 in the presence of the test compound. […] The test compounds in 2% DMSO (final concentration) at various concentrations were then added to the reaction mixture and incubated for 60 minutes at 4° C.
# Raw ALphaScreen data were converted to a percentage of inhibition (relative to DMSO) using the following equations: • a) For a given test compound concentration X: […]
# The IC50 values were determined by nonlinear regression of plots of [inhibitor] vs. percentage of inhibition with variable slope, analyzed using GraphPad Prism (Version 9).
# KRAS G12V = KRAS G12V (Homo sapiens (Human), UniProt P01116, G12V); assay: KRAS G12V degradation in SW620 cells (Western blot, DC50); type: cell-based; settings: 24 hours
# Chain of KRAS G12V (P01116-2 other isoform, or with tags, fused parts or gaps G12V): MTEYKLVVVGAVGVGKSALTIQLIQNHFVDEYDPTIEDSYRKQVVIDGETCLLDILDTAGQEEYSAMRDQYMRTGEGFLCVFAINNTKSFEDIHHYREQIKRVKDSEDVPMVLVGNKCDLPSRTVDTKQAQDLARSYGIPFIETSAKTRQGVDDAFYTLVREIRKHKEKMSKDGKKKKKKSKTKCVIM
# Experimental: SW620 (KRAS G12V homozygous), AsPC1 (KRAS G12D homozygous), MIA PaCa2 (KRAS G12C homozygous), A549 (KRAS G12S homozygous) and MCF7 (KRAS WT) cells were obtained from American Type Culture Collection (ATCC). […] The following day, the test compound was administered to the cells by using 1000× compound stock solution prepared in DMSO at various concentrations. After administration of the compound, the cells were then incubated at 37° C. for 24 hours. Upon completion, the cells were washed with PBS and protein was collected in Laemmli sample buffer (1×; VWR International). Proteins in cell lysate were separated by SDS-PAGE and transferred to Odyssey nitrocellulose membranes (Licor) with iblot® dry blotting transfer system (ThermoFisher). Nonspecific binding was blocked by incubating membranes with Intercept Blocking Buffer (Licor) for 1 hour at room temperature with gentle shaking. […] After washing 3 times with TBS-T, the membranes were incubated with IRDye® 800CW goat anti-rabbit IgG (1:20,000, Licor) and IRDye® 680RD goat anti-mouse IgG (1:20,000, Licor) for 1 hour. After TBS-T washes, membranes were rinsed in TBS and Western blot images were acquired by Odyssey CLx (LI-COR Biosciences).
# The signal intensity of target proteins was calculated using ImageStudio software. KRAS fluorescent intensity (FLU) from DMSO (vehicle) treatment was set as 100%. Relative KRAS expression level was determined by the following formula: […]
# The percentage of KRAS expression was calculated using Microsoft Excel. The half-maximal degradation concentration (DCso) values were generated by GraphPad Prism (Version 9) using the dose-response equation of variable slope (four parameters).
# Chain of KRAS-G12V/RAF1 (P01116-2 other isoform, or with tags, fused parts or gaps G12V): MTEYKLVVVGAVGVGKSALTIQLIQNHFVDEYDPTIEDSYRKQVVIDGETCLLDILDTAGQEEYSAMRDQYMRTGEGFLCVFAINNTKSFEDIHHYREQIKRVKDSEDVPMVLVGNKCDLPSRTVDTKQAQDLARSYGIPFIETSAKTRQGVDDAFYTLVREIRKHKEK
Compound,IC50 (KRAS-G12V/RAF1),DC50 (KRAS G12V)
"CCc1c(F)ccc2cc(O)cc(-c3ncc4c(N5CCOC[C@](C)(O)C5)nc(OCC5(CN6CCC7(CC6)CC(CN6CCN(c8ccc9c(c8)CN([C@H]8CCC(=O)NC8=O)C9=O)CC6)C7)CC5)nc4c3F)c12 [Compound 113, (S)-3-(5-(4-((7-((1-(((7-(8-ethyl-7-fluoro-3-hydroxynaphthalen-1-yl)-8-fluoro-4-((R)-6-hydroxy-6-methyl-1,4-oxazepan-4-yl)pyrido[4,3-d]pyrimidin-2-yl)oxy)methyl)cyclopropyl)methyl)-7-azaspiro[3.5]nonan-2-yl)methyl)piperazin-1-yl)-1-oxoisoindolin-2-yl)piperidine-2,6-dione]",> 200 nM,> 100 nM
"CCc1c(F)ccc2cc(O)cc(-c3ncc4c(N5CCC[C@@](C)(O)C5)nc(OCC5(CN6CCC(N7CCN(c8ccc9c(c8)CN([C@H]8CCC(=O)NC8=O)C9=O)CC7)CC6)CC5)nc4c3F)c12 [Compound 7, (S)-3-(5-(4-(1-((1-(((7-(8-ethyl-7-fluoro-3-hydroxynaphthalen-1-yl)-8-fluoro-4-((R)-3-hydroxy-3-methylpiperidin-1-yl)pyrido[4,3-d]pyrimidin-2-yl)oxy)methyl)cyclopropyl)methyl)piperidin-4-yl)piperazin-1-yl)-1-oxoisoindolin-2-yl)piperidine-2.6-dione]",–,< 1 nM
"CCc1cccc2cc(O)cc(-c3ncc4c(N(C)C5C[C@H]5F)nc(OCC5(CN6CCC(CN7CCN(c8ccc9c(c8)CN([C@H]8CCC(=O)NC8=O)C9=O)CC7)CC6)CC5)nc4c3F)c12 (stereo partly drawn) [Compound 29, (S)-3-(5-(4-((1-((1-(((7-(8-ethyl-3-hydroxynaphthalen-1-yl)-8-fluoro-4-(((1R,2R)-2-fluorocyclopropyl)(methyl)amino)pyrido[4,3-d]pyrimidin-2-yl)oxy)methyl)cyclopropyl)methyl)piperidin-4-yl)methyl)piperazin-1-yl)-1-oxoisoindolin-2-yl)piperidine-2,6-dione]",–,1 to 10 nM
"CCc1c(F)ccc2cc(O)cc(-c3ncc4c(N5CCCC6(CCO6)C5)nc(OCC5(CN6CCC(CN7CCN(c8ccc9c(c8)CN(C8CCC(=O)NC8=O)C9=O)CC7)CC6)CC5)nc4c3F)c12 [Compound 23, (3S)-3-(5-(4-((1-((1-(((7-(8-ethyl-7-fluoro-3-hydroxynaphthalen-1-yl)-8-fluoro-4-(1-oxa-6-azaspiro[3.5]nonan-6-yl)pyrido[4,3-d]pyrimidin-2-yl)oxy)methyl)cyclopropyl)methyl)piperidin-4-yl)methyl)piperazin-1-yl)-1-oxoisoindolin-2-yl)piperidine-2,6-dione]",–,1 to 10 nM
"CCc1c(F)ccc2cc(O)cc(-c3ncc4c(N5CCC[C@@]6(CCO6)C5)nc(OCC5(CN6CCC(CN7CCN(c8ccc9c(c8)CN(C8CCC(=O)NC8=O)C9=O)CC7)CC6)CC5)nc4c3F)c12 (stereo partly drawn) [Compound 45, (S)-3-(5-(4-((1-((1-(((7-(8-ethyl-7-fluoro-3-hydroxynaphthalen-1-yl)-8-fluoro-4-((R)-1-oxa-6-azaspiro[3.5]nonan-6-yl)pyrido[4,3-d]pyrimidin-2-yl)oxy)methyl)cyclopropyl)methyl)piperidin-4-yl)methyl)piperazin-1-yl)-1-oxoisoindolin-2-yl)piperidine-2,6-dione]",–,> 100 nM
"CCc1c(F)ccc2cc(O)cc(-c3ncc4c(N5CCC[C@]6(CCO6)C5)nc(OCC5(CN6CCC(CN7CCN(c8ccc9c(c8)CN(C8CCC(=O)NC8=O)C9=O)CC7)CC6)CC5)nc4c3F)c12 (stereo partly drawn) [Compound 44, (S)-3-(5-(4-((1-((1-(((7-(8-ethyl-7-fluoro-3-hydroxynaphthalen-1-yl)-8-fluoro-4-((S)-1-oxa-6-azaspiro[3.5]nonan-6-yl)pyrido[4,3-d]pyrimidin-2-yl)oxy)methyl)cyclopropyl)methyl)piperidin-4-yl)methyl)piperazin-1-yl)-1-oxoisoindolin-2-yl)piperidine-2,6-dione]",–,1 to 10 nM

# Now from value to compound:
IC50 (KRAS-G12V/RAF1),DC50 (KRAS G12V),Compound
20 to 200 nM,> 100 nM,"CCc1c(F)ccc2cc(O)cc(-c3ncc4c(N5CCC[C@@](C)(O)C5)nc(OCC5(CN6CCC7(CC6)CC(F)(C6CCN(c8ccc9c(c8)CN(C8CCC(=O)NC8=O)C9=O)CC6)C7)CC5)nc4c3F)c12 (stereo partly drawn) [Compound 185, 3-(5-(4-(7-((1-(((7-(8-ethyl-7-fluoro-3-hydroxynaphthalen-1-yl)-8-fluoro-4-((R)-3-hydroxy-3-methylpiperidin-1-yl)pyrido[4,3-d]pyrimidin-2-yl)oxy)methyl)cyclopropyl)methyl)-2-fluoro-7-azaspiro[3.5]nonan-2-yl)piperidin-1-yl)-1-oxoisoindolin-2-yl)piperidine-2,6-dione]"
20 to 200 nM,< 1 nM,"C[C@@]1(O)CCCN(c2nc(OCC3(CN4CCC5(CC4)CC(CN4CCN(c6ccc7c(c6)CN([C@H]6CCC(=O)NC6=O)C7=O)CC4)C5)CC3)nc3c(F)c(-c4cc(O)cc5ccc(F)c(F)c45)ncc23)C1 [Compound 103, (S)-3-(5-(4-((7-((1-(((7-(7,8-difluoro-3-hydroxynaphthalen-1-yl)-8-fluoro-4-((R)-3-hydroxy-3-methylpiperidin-1-yl)pyrido[4,3-d]pyrimidin-2-yl)oxy)methyl)cyclopropyl)methyl)-7-azaspiro[3.5]nonan-2-yl)methyl)piperazin-1-yl)-1-oxoisoindolin-2-yl)piperidine-2,6-dione]"
> 200 nM,> 100 nM,"CCc1c(F)ccc2cc(O)cc(-c3ncc4c(N5CCOC[C@](C)(O)C5)nc(OCC5(CN6CCC(CN7CCN(c8ccc9c(c8)CN([C@H]8CCC(=O)NC8=O)C9=O)CC7)CC6)CC5)nc4c3F)c12 [Compound 112, (S)-3-(5-(4-((1-((1-(((7-(8-ethyl-7-fluoro-3-hydroxynaphthalen-1-yl)-8-fluoro-4-((R)-6-hydroxy-6-methyl-1,4-oxazepan-4-yl)pyrido[4,3-d]pyrimidin-2-yl)oxy)methyl)cyclopropyl)methyl)piperidin-4-yl)methyl)piperazin-1-yl)-1-oxoisoindolin-2-yl)piperidine-2,6-dione]"
20 to 200 nM,–,"CCc1cccc2cc(O)cc(-c3ncc4c(N5CCC[C@@](C)(O)C5)nc(OCC5(CN6CC7(CCC(F)(CN8CCN(c9ccc%10c(c9)CN([C@H]9CCC(=O)NC9=O)C%10=O)CC8)CC7)C6)CC5)nc4c3F)c12 [Compound 179, (S)-3-(5-(4-((2-((1-(((7-(8-ethyl-3-hydroxynaphthalen-1-yl)-8-fluoro-4-((R)-3-hydroxy-3-methylpiperidin-1-yl)pyrido[4,3-d]pyrimidin-2-yl)oxy)methyl)cyclopropyl)methyl)-7-fluoro-2-azaspiro[3.5]nonan-7-yl)methyl)piperazin-1-yl)-1-oxoisoindolin-2-yl)piperidine-2,6-dione]"
–,> 100 nM,"CCc1c(F)ccc2cc(O)cc(-c3ncc4c(N5CCCNC(=O)C5)nc(OCC5(CN6CCC(CN7CCN(c8ccc9c(c8)CN([C@H]8CCC(=O)NC8=O)C9=O)CC7)CC6)CC5)nc4c3F)c12 [Compound 95, (S)-3-(5-(4-((1-((1-(((7-(8-ethyl-7-fluoro-3-hydroxynaphthalen-1-yl)-8-fluoro-4-(3-oxo-1,4-diazepan-1-yl)pyrido[4,3-d]pyrimidin-2-yl)oxy)methyl)cyclopropyl)methyl)piperidin-4-yl)methyl)piperazin-1-yl)-1-oxoisoindolin-2-yl)piperidine-2,6-dione]"
–,> 100 nM,"CCc1cccc2cc(O)cc(-c3ncc4c(N5CCNC(=O)CC5)nc(OCC5(CN6CCC(CN7CCN(c8ccc9c(c8)CN([C@H]8CCC(=O)NC8=O)C9=O)CC7)CC6)CC5)nc4c3F)c12 [Compound 127, (S)-3-(5-(4-((1-((1-(((7-(8-ethyl-3-hydroxynaphthalen-1-yl)-8-fluoro-4-(5-oxo-1,4-diazepan-1-yl)pyrido[4,3-d]pyrimidin-2-yl)oxy)methyl)cyclopropyl)methyl)piperidin-4-yl)methyl)piperazin-1-yl)-1-oxoisoindolin-2-yl)piperidine-2,6-dione]"
20 to 200 nM,–,"CCc1c(F)ccc2cc(O)cc(-c3ncc4c(N5CCOCC6(CCO6)C5)nc(OCC5(CN6CCC(CN7CCN(c8ccc9c(c8)CN([C@H]8CCC(=O)NC8=O)C9=O)CC7)CC6)CC5)nc4c3F)c12 (stereo partly drawn) [Compound 125, (3S)-3-(5-(4-((1-((1-(((7-(8-ethyl-7-fluoro-3-hydroxynaphthalen-1-yl)-8-fluoro-4-(1,6-dioxa-9-azaspiro[3.6]decan-9-yl)pyrido[4,3-d]pyrimidin-2-yl)oxy)methyl)cyclopropyl)methyl)piperidin-4-yl)methyl)piperazin-1-yl)-1-oxoisoindolin-2-yl)piperidine-2,6-dione]"
